Measurements taken from patent US11628172B2, “Methods of treating chronic lymphocytic leukemia using 2-(2,6-dioxopiperidin-3-yl)-4-((2-fluoro-4-((3-morpholinoazetidin-1-yl)methyl)benzyl)amino)isoindoline-1,3-dione” (Celgene Corporation, priority 2019, dated 2023).

System: primary CLL cells from patient-derived blood (CD5+CD19+ tumor cells)
Experiment: Compound 1 in combination with obinutuzumab in B-cell CLL patient cells (ex vivo co-culture, flow cytometry, Caspase3)
Format: cell-based, human
Conditions: 144 h
Method: Obinutuzumab (GA101) is a humanized, glycoengineered type 2 antibody targeted against CD20. […] The effect of treatment with Compound 1 in combination with obinutuzumab on the proliferation and survival of CLL B cells was assessed utilizing an ex vivo model where primary CLL cells from patient-derived blood were stimulated to proliferate with 10% fetal bovine serum (FBS), 5 ng/mL recombinant human interleukine-4 (rh IL-4), 10 ng/mL recombinant human interleukine-10 (rh IL-10) and co-cultured with fibroblast expressing surface CD154 (CD40L) in a 96 well plate format.
Peripheral blood mononuclear cells (PBMCs) from CLL patients (Table 7) containing 52%-86% of CD5^+CD19^+ tumor cells were cultured at a density of 0.06-0.1×10^6 cells/well on a monolayer of CD154-expressing fibroblasts at a density of 0.09×10^6 cells/well in 96-well plates in RPMI 1640 medium supplemented with 10% FBS, 5 ng/mL rh IL-4 and 10 ng/mL rh IL-10. The cells were treated with vehicle control (0.1% DMSO) or increasing concentrations of Compound 1 ranging from 0.0001 to 1 μM and GA101 at concentrations ranging from 8 ng/mL to 5 ug/mL across all the different concentrations of Compound 1. After 144 h of treatment with both the agents, flow cytometric analysis was used to determine the number of tumor cells that were viable or apoptotic.
The tumor cell count was assessed by staining the patient PBMCs in each condition with tumor cell surface markers CD5 & CD19 along with Live/Dead fixable dye to exclude the dead cells and followed by intracellular staining for Caspase3 antibody to identify the apoptotic cells and was measured by flow cytometry (Attune NxT, Thermo Fisher). The live tumor cell count for each condition was calculated by normalizing to the precision count beads added to each sample.
The live tumor cell count was then normalized to the DMSO control (considered as 100% viable) to calculate the percentage of viable cells remaining after treatment. The normalized percentage of tumor cells was then represented as a heat map using Graph Pad Prism 8.0.0 to indicate the degree of tumor toxicity for each of the combinations (FIG. 1). Based on the data shown in FIG. 1, synergy/additivity calculations were performed using the HSA and Bliss Independence Model.
For apoptosis analysis, the percentage of apoptosis combining both “early” (Caspase 3 positive and Live-Dead fixable dye negative) and “late” apoptosis (Caspase 3 and Live-Dead fixable dye positive) cell gates subtracting the baseline DMSO value was graphed using GraphPad Prism 8.0.0.0. The Ymax (maximal percentage of apoptosis achieved) values from apoptosis curves were calculated by performing a nonlinear regression curve fitting using log(agonist) vs. normalized response—Variable slope analysis and identifying the maximum value on GraphPad Prism 8.0.0 (Table 8).

Obinutuzumab: humanized, glycoengineered type 2 antibody targeted against CD20
induction of apoptosis (in words) (CLL patient cells Pt 11-14, Table 8): induced apoptosis alone | Ymax of Pt 11 (%) (Pt 11, single agent (Cpd1 DRC with DMSO, or obinutuzumab alone), apoptosis (Caspase 3), DMSO baseline subtracted): 27.98% | Ymax of Pt 12 (%) (Pt 12, single agent (Cpd1 DRC with DMSO, or obinutuzumab alone), apoptosis (Caspase 3), DMSO baseline subtracted): 24.91% | Ymax of Pt 13 (%) (Pt 13, single agent (Cpd1 DRC with DMSO, or obinutuzumab alone), apoptosis (Caspase 3), DMSO baseline subtracted): 35.87% | Ymax of Pt 14 (%) (Pt 14, single agent (Cpd1 DRC with DMSO, or obinutuzumab alone), apoptosis (Caspase 3), DMSO baseline subtracted): 25.82%
